Data from ChEMBL document CHEMBL1201862, “PubChem BioAssay data set” (2004).
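Cells were grown in 96-well plates and exposed to each compound for 48 hours at five concentrations; endpoints were interpolated linearly between bracketing concentrations, or set to the highest concentration if not reached. GI50: concentration for 50% inhibition of growth.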 Activity calls are given as the source filed them. Cut-off read from the data, not from the text of the source: active = GI50 up to about 1.1 µM and inactive = higher.

What was measured:
Assay in all cases: inhibition of tumour cell growth, NCI panel, 48 h
786-0 = system: 786-0
A498 = system: A498
BT-549 = system: BT-549
HCT-116 = system: HCT-116
HOP-92 = system: HOP-92
K562 = system: K562
M14 = system: M14
MDA-MB-435 = system: MDA-MB-435
MDA-N = system: MDA-N
NCI-H226 = system: NCI-H226
SF-268 = system: SF-268
SN12C = system: SN12C
TK-10 = system: TK-10
U-251 = system: U-251
UACC-257 = system: UACC-257
CCRF-CEM = system: CCRF-CEM
HCC 2998 = system: HCC 2998
MCF7 = system: MCF7
SK-MEL-5 = system: SK-MEL-5
SR = system: SR

| Structure (SMILES) | GI50 (786-0) | GI50 (A498) | GI50 (BT-549) | GI50 (HCT-116) | GI50 (HOP-92) | GI50 (K562) | GI50 (M14) | GI50 (MDA-MB-435) | GI50 (MDA-N) | GI50 (NCI-H226) | GI50 (SF-268) | GI50 (SN12C) | GI50 (TK-10) | GI50 (U-251) | GI50 (UACC-257) | GI50 (CCRF-CEM) | GI50 (HCC 2998) | GI50 (MCF7) | GI50 (SK-MEL-5) | GI50 (SR) |
| --- | --- | --- | --- | --- | --- | --- | --- | --- | --- | --- | --- | --- | --- | --- | --- | --- | --- | --- | --- | --- |
| CC1=CC2=C(C#N)C(=O)OC2(C)C(c2ccccc2)C1 (stereo not given) | > 100 µM (inactive) | > 100 µM (inactive) | > 100 µM (inactive) | > 100 µM (inactive) | 87.5 µM (inactive) | 68.7 µM (inactive) | > 100 µM (inactive) | > 100 µM (inactive) | > 100 µM (inactive) | > 100 µM (inactive) | > 100 µM (inactive) | > 100 µM (inactive) | > 100 µM (inactive) | > 100 µM (inactive) | > 100 µM (inactive) |  |  |  |  |  |
| O=C1c2ccccc2C(=O)c2c1nc1ccccc1c2-c1cncc(-c2c3c(nc4ccccc24)C(=O)c2ccccc2C3=O)c1 | 9.82 µM (inactive) | 9.18 µM (inactive) | 11.4 µM (inactive) | 4.17 µM (inactive) | 4.32 µM (inactive) | 1.31 µM (inactive) | 3.18 µM (inactive) | 1.83 µM (inactive) |  | 5.87 µM (inactive) | 6.08 µM (inactive) | 3.98 µM (inactive) | 37.3 µM (inactive) | 8 µM (inactive) | 8.63 µM (inactive) | 0.562 µM (active) | 18.5 µM (inactive) | 5.19 µM (inactive) | 1.29 µM (inactive) | 1.53 µM (inactive) |
| C[C@@H]1CC[C@]2(C(=O)O)CC[C@]3(C)C(=CC[C@@H]4[C@@]5(C)CC[C@H](O)C(C)(C)[C@@H]5CC[C@]43C)[C@@H]2[C@]1(C)O [POMOLIC ACID] | 5.38 µM (inactive) | 19 µM (inactive) | 14.4 µM (inactive) | 12.2 µM (inactive) | 4.45 µM (inactive) | 6.49 µM (inactive) | 2.98 µM (inactive) | 15.5 µM (inactive) |  |  | 17.1 µM (inactive) | 13.6 µM (inactive) | 14.5 µM (inactive) | 14.1 µM (inactive) | 5.42 µM (inactive) | 10.3 µM (inactive) | 15 µM (inactive) | 20 µM (inactive) |  | 13.9 µM (inactive) |
| CCCCCCCCCCCCc1ccsc1-c1ccc(-c2ccc(-c3sc(-c4cc(CCCCCCCCCCCC)c(-c5ccc(-c6ccc(-c7sccc7CCCCCCCCCCCC)s6)s5)s4)cc3CCCCCCCCCCCC)s2)s1 | > 100 µM (inactive) | > 100 µM (inactive) | > 100 µM (inactive) | > 100 µM (inactive) | > 100 µM (inactive) | > 100 µM (inactive) | > 100 µM (inactive) | > 100 µM (inactive) |  | > 100 µM (inactive) | > 100 µM (inactive) | > 100 µM (inactive) | > 100 µM (inactive) | > 100 µM (inactive) | > 100 µM (inactive) | 38.3 µM (inactive) | > 100 µM (inactive) | > 100 µM (inactive) | > 100 µM (inactive) | 22.8 µM (inactive) |
| CN(C)C(=O)C(F)(F)C(c1ccc(F)cc1)C1C(=O)N(C)C(=O)N(C)C1=O (stereo not given) | > 100 µM (inactive) | > 100 µM (inactive) | > 100 µM (inactive) | > 100 µM (inactive) | > 100 µM (inactive) |  | > 100 µM (inactive) | > 100 µM (inactive) |  | > 100 µM (inactive) | > 100 µM (inactive) |  | > 100 µM (inactive) | > 100 µM (inactive) | > 100 µM (inactive) | > 100 µM (inactive) | > 100 µM (inactive) | > 100 µM (inactive) | > 100 µM (inactive) |  |
| CCCCCCCCCCCCCCCCCC(=O)Nc1ccn(C2CCC(COP(=O)(O)O)O2)c(=O)n1 (stereo not given) | > 100 µM (inactive) | > 100 µM (inactive) | > 100 µM (inactive) | > 100 µM (inactive) | > 100 µM (inactive) | > 100 µM (inactive) | > 100 µM (inactive) | > 100 µM (inactive) |  | > 100 µM (inactive) | > 100 µM (inactive) | > 100 µM (inactive) | > 100 µM (inactive) | > 100 µM (inactive) | > 100 µM (inactive) | > 100 µM (inactive) | > 100 µM (inactive) | > 100 µM (inactive) | > 100 µM (inactive) | > 100 µM (inactive) |
